From patent US10670605B2, “Cysteine reactive probes and uses thereof” (The Scripps Research Institute, priority 2015, dated 2020) come the findings set out here.

Assay [1] addresses T1, cysteines in MDA-MB-231 and Ramos cells (Homo sapiens, UniProt Q9NVC6).
T1 sequence (Q9NVC6 1-651): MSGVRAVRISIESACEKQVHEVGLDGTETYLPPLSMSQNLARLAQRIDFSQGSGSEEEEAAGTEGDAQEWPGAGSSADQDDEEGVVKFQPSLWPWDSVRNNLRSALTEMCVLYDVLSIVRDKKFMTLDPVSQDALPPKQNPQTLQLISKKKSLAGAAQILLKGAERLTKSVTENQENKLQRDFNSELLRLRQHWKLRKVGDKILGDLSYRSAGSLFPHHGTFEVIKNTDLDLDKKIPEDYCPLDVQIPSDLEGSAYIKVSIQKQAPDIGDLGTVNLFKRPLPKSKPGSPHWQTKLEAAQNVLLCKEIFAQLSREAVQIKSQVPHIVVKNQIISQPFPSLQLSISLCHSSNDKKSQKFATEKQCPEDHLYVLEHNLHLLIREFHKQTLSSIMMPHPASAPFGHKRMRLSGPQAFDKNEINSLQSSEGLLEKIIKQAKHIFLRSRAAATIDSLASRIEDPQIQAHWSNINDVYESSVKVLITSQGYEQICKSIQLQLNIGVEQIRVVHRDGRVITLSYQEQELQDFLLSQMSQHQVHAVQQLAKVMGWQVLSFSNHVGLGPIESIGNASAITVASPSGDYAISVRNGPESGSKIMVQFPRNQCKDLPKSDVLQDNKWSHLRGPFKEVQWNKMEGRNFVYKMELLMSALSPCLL
The experiment in a line: Competitive isoTOP-ABPP in situ (fragment-treated cells). The format is cell-based.

The target in assay [2] is T2, cysteines in MDA-MB-231 and Ramos cells (Homo sapiens, UniProt Q9Y277).
T2 sequence (Q9Y277 1-283): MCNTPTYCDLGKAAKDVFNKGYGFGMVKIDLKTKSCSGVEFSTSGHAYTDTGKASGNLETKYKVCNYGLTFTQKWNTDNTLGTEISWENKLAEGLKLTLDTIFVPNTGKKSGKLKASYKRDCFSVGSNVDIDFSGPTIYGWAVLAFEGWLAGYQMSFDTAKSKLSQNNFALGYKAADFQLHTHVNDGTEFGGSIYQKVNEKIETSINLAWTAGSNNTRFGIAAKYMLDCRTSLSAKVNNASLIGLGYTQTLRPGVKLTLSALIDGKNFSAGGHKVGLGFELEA
The assay is described as above. The format is cell-based. The following applies: for isoTOP-ABPP ratio Q9Y277_C65: 200 μM, insitu.

The target in assay [3] is T3, cysteines in MDA-MB-231 and Ramos cells (Homo sapiens, UniProt Q9BQ69).
T3 sequence (Q9BQ69 1-325): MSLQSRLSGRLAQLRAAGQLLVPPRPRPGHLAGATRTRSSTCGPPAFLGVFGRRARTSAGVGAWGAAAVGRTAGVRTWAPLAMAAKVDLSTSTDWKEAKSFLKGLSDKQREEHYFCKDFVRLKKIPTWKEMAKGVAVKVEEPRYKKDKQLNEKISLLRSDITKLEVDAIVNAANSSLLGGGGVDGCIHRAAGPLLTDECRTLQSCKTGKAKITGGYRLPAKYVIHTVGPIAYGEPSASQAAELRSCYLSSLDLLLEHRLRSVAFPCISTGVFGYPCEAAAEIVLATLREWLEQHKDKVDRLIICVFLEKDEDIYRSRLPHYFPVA
The description is as above. The format is cell-based.

Assay [4] has as its target T4, cysteines in MDA-MB-231 and Ramos cells (Homo sapiens, UniProt P57764).
T4 sequence (P57764 1-484): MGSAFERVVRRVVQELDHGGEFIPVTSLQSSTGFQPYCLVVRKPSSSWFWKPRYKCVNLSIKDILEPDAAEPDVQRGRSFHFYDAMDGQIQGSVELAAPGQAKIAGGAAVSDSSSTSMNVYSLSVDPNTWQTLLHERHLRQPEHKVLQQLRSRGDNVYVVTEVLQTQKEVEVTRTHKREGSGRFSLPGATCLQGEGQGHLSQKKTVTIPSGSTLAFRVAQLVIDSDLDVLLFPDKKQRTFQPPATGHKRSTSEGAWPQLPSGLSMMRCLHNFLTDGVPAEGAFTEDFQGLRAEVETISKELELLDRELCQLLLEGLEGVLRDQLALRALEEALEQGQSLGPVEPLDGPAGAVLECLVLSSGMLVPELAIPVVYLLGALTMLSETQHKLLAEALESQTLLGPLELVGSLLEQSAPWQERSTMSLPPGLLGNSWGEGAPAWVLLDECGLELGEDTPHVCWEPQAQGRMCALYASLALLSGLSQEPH
The description is as above. The format is cell-based. The following applies: for isoTOP-ABPP ratio P57764_C268: 200 μM, insitu.

Assay [5] addresses T5, cysteines in MDA-MB-231 and Ramos cells (Homo sapiens, UniProt P42224).
T5 sequence (P42224 1-750): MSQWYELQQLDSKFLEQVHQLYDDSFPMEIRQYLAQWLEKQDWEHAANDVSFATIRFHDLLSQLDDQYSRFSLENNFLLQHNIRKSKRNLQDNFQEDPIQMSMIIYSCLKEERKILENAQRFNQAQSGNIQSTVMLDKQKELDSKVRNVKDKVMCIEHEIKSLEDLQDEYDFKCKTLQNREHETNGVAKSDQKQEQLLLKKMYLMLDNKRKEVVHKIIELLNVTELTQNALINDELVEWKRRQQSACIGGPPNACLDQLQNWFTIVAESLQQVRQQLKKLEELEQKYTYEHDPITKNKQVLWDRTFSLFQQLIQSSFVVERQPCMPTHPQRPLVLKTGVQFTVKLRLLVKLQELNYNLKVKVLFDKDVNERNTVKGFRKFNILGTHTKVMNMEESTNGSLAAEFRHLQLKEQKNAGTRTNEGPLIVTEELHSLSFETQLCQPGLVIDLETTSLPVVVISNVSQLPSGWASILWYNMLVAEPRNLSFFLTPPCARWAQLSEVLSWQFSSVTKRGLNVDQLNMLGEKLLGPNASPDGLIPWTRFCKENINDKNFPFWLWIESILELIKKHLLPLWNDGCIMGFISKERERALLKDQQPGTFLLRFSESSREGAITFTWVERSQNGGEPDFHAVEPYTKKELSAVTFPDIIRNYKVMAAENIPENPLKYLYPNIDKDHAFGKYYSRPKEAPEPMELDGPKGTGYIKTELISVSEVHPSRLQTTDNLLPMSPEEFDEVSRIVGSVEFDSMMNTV
Described as above. The format is cell-based. The following applies: 200 μM, insitu.

For the next assay, the target named is O114933_C98 (Homo sapiens, UniProt O14933). The experiment in a line: Competitive isoTOP-ABPP, cell lysates. The format is binding. The following applies: 500 μm, in-vitro_ramos.
Chain of O114933_C98 (O14933 whole entry): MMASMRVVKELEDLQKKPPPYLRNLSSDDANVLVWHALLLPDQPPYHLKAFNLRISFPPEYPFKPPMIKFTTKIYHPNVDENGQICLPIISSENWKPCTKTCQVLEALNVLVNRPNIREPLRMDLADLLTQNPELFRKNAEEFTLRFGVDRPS

Turning to `COc1ccc(C2CC(c3cccs3)=NN2C(=O)CCl)cc1` (centres unmarked) [compound 4], the “isoTOP-ABPP reactivity Q9NVC6_C649 MED17” value in assay [1] (100 μM in situ 231) was 1.7. Moreover, in assay [2] (100 μM in situ 231), the “isoTOP-ABPP reactivity Q9Y277_C65 VDAC3” value is 4.7. Moreover, in assay [3] (100 μM in situ 231), the “isoTOP-ABPP reactivity Q9BQ69_C186 MACROD1” value was 1.8. Moreover, the “isoTOP-ABPP reactivity P57764_C268 GSDMD” value in assay [4] (100 μM in situ 231) turned out to be 20.0.
`O=C(CCl)Nc1cccc2ncccc12` [compound 51]: the “isoTOP-ABPP ratio Q9BQ69_C186” value in assay [3] (200 μM, insitu, 231) is listed as 1.2. For the same compound, the “isoTOP-ABPP ratio P42224_C492” value in assay [5] (231) is given as 2.4. In addition, the “isoTOP-ABPP ratio P57764_C268” value in assay [4] (231) was determined as 1.8.
In the case of `CC1CCc2ccccc2N1C(=O)CCl` (centres unmarked) [compound 45], the “isoTOP-ABPP ratio Q9NVC6_C649” value in assay [1] (200 μM, insitu, 231) is 20.0. Also, the “isoTOP-ABPP ratio Q9BQ69_C186” value in assay [3] (200 μM, insitu, 231) was found to be 3.3. Besides, the “isoTOP-ABPP ratio P42224_C492” value in assay [5] (231) is 20.0. Also, in assay [4] (231), the “isoTOP-ABPP ratio P57764_C268” value is on record as 20.0.
In the case of `O=C(CCl)NC(=O)NC12CC3CC(CC(C3)C1)C2` [compound 12], the “isoTOP-ABPP ratio Q9NVC6_C649” value in assay [1] (200 μM, insitu, 231) came out at 4.0. In addition, the “isoTOP-ABPP ratio Q9Y277_C65” value in assay [2] (231) is 3.9. Further, the “isoTOP-ABPP ratio Q9BQ69_C186” value in assay [3] (200 μM, insitu, 231) is 2.7. For the same compound, the “isoTOP-ABPP ratio P42224_C492” value in assay [5] (231) is 1.0.
In the case of `O=C(CCl)N1CCN(S(=O)(=O)c2ccccc2F)CC1` [compound 10], the “isoTOP-ABPP ratio Q9NVC6_C649” value amounted to 2.3 in assay [1] (200 μM, insitu, 231) and 2.1 in assay [1] (200 μM, insitu, ramos). Also, the figures for the “isoTOP-ABPP ratio Q9Y277_C65” value in assay [2] (231) and in assay [2] (ramos) were 3.3 and 2.5, respectively. Besides, the “isoTOP-ABPP ratio Q9BQ69_C186” value in assay [3] (200 μM, insitu, 231) came out at 2.4. Besides, the “isoTOP-ABPP ratio P42224_C492” value in assay [5] (231) stood at 20.0. In assay [4] (ramos), the “isoTOP-ABPP ratio P57764_C268” value is recorded as 2.2.
Consider `O=C(CCl)N1CCN(CC(=O)N2CCOCC2)CC1` [compound 29], for which the “isoTOP-ABPP ratio Q9NVC6_C649” value in assay [1] (200 μM, insitu, ramos) amounted to 1.6. Further, the “isoTOP-ABPP ratio Q9BQ69_C186” value in assay [3] (200 μM, insitu, ramos) worked out at 1.5. Also, in assay [5] (ramos), the “isoTOP-ABPP ratio P42224_C492” value is given as 3.8. Further, the “isoTOP-ABPP ratio P57764_C268” value in assay [4] (ramos) came to 1.1.
On to `CC(C)CCOCCNC(=O)CCl` [compound 27], for which the “isoTOP-ABPP ratio Q9NVC6_C649” value in assay [1] (200 μM, insitu, 231) came out at 1.3. Moreover, the “isoTOP-ABPP ratio Q9Y277_C65” value in assay [2] (231) is 1.6. In addition, in assay [3] (200 μM, insitu, 231), the “isoTOP-ABPP ratio Q9BQ69_C186” value came to 2.4. The “isoTOP-ABPP ratio P57764_C268” value in assay [4] (231) is on record as 0.6.
With `CCN(CC)c1ccc(S(N)(=O)=O)cc1NC(=O)CCl` [compound 30], the “isoTOP-ABPP reactivity ratio, O114933_C98” value at O114933_C98 stood at 2.1.
On to `O=C(CCl)N1CCC(Cc2ccccc2)CC1` [compound 9], for which the “isoTOP-ABPP reactivity Q9NVC6_C649 MED17” value in assay [1] (200 μM, insitu, 231) came out at 2.2. For the same compound, in assay [3] (200 μM, insitu, 231), the “isoTOP-ABPP reactivity Q9BQ69_C186 MACROD1” value came to 1.2. Moreover, the “isoTOP-ABPP reactivity P42224_C492 STAT1” value in assay [5] (231) turned out to be 3.1.
With `C=CC(=O)Nc1cc(C)c(Br)cc1C` [compound 40], the “isoTOP-ABPP reactivity ratio, O114933_C98” value on O114933_C98 was 1.3.
